In patent US20120309838A1, “USE OF AGOMELATINE IN OBTAINING MEDICAMENTS INTENDED FOR THE TREATMENT OF OBSESSIVE-COMPULSIVE DISORDER (OCD)” (Les Laboratoires Servier, priority 2010, published 2012):
Entries after “also recorded” stand apart in the source; their conditions may differ.

How the values were obtained:
[1] = test system: Male mice of the NMRI strain; assay: Spontaneous marble burying in mice (model of Obsessive-Compulsive Disorder); assay type: in vivo; settings: for number of marbles buried: injected 30 minutes before test, 30 minutes' exploration, 24 marbles, carrier 20.2±0.6
Procedure: Pre-clinical studies were carried out using a model of Obsessive-Compulsive Disorder (OCD), confirming the potential of agomelatine for treatment of this pathology. […] The study was carried out as follows. Male mice of the NMRI strain (Iffa-Credo, L'Arbresle, France), weighing 20-25 g on the day of the experiment, were placed individually in Macrolon boxes (30×18×19 cm) containing 5 cm of sawdust and covered with a perforated plexiglass plate. Twenty-four “cat's eye” glass marbles were evenly distributed on the sawdust at the periphery of the box. At the end of 30 minutes' free exploration, the animals were removed from the box and the number of buried marbles was counted. Agomelatine or the carrier (control) was injected 30 minutes before the start of the test.

[2] = test system: out-patients having a primary diagnosis of Obsessive-Compulsive Disorder; assay: Double-blind placebo-controlled clinical study in out-patients with Obsessive-Compulsive Disorder; assay type: in vivo, human; settings: 25 mg, 16 weeks of treatment
Procedure: A clinical study comparing agomelatine with placebo was carried out in 80 out-patients more than 18 and less than 65 years in age, having a primary diagnosis of Obsessive-Compulsive Disorder according to the criteria of DSM-IV-TR. The patients must have, on entry into the study, a score of 20 or more on the Y-BOCS scale (Yale Brown Obsessive Compulsive Scale) and have been previously treated for their Obsessive-Compulsive Disorder with a serotonin reuptake inhibitor (SRI). The patients must have a depression severity score of less than 24 on the MADRS depression scale.
The study is a double-blind placebo-controlled study for a duration of treatment of 16 weeks. The patients are randomised either into the placebo group or into the 25 mg agomelatine group with the possibility of increasing the dose of agomelatine to 50 mg in the event of failure to respond after 8 weeks of treatment (criterion for failure to respond: less than 20% reduction in the total Y-BOCS score).
The main criterion for the assessment of efficacy is the reduction in the total score on the Y-BOCS scale. […] The presence of depressive symptoms and their course over time are analysed by the MADRS depression scale at the start of treatment and after 16 weeks of treatment. […]

patients = assay: Tolerability observed in clinical trials on close to 3900 patients; assay type: in vivo, human
Excerpt: Amongst those effects, the discontinuation syndrome observed on stopping treatment with the customary psychotropic agents is absent in the case of agomelatine, which makes it a treatment of choice in this indication.

COc1ccc2cccc(CCNC(C)=O)c2c1 [Agomelatine, N-[2-(7-methoxy-1-naphthyl)ethyl]acetamide]
number of marbles buried ([1]; 10 mg/kg intraperitoneal, n=6): 19.2±1.3 | number of marbles buried ([1]; 40 mg/kg intraperitoneal, n=6, P<0.05 vs carrier): 15.3±3.0 | number of marbles buried ([1]; 80 mg/kg intraperitoneal, n=5, P<0.05 vs carrier): 4.6±1.9 | effect on spontaneous marble burying (in words) ([1]; intraperitoneal, doses of 10, 40 and 80 mg/kg): greatly reduced spontaneous marble burying in mice in dose-dependent manner; also recorded: statistically significant activity | efficacy in the treatment of Obsessive-Compulsive Disorder (in words) ([2]; possibly increased to 50 mg after 8 weeks, versus placebo, 80 out-patients): confirm the efficacy | acceptability profile (in words) ([2]; possibly increased to 50 mg): good acceptability profile | tolerability (in words) (patients; clinical trials on close to 3900 patients): excellent tolerability | discontinuation syndrome on stopping treatment (patients; compared with the customary psychotropic agents): absent
